Molecular target: T1, Human autotaxin enzyme (Homo sapiens, UniProt Q13822)
T1 construct: purchased R&D System
Experiment: Evaluation of autotaxin inhibitor, Method C (Test Example 3): 18:0 Lyso PC, choline assay, Resorufin fluorescence
Assay type: biochemical
Conditions: Assay Method C (Test Example 3), human autotaxin, 18:0 Lyso PC substrate; read-out: Inhibitory Activity (autotaxin enzyme inhibitory activity, IC50 class)
Procedure, shortened: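 Human autotaxin in Tris-HCl pH 7.5, 150 mM NaCl, 5 mM MgCl2, 0.05% Triton X-100 reacted 2 h at room temperature with 18:0 Lyso PC (200 μM solution added). Released choline detected via choline oxidase/peroxidase/Amplex-type reagent, resorufin fluorescence (ex 531/em 598 nm); inhibition vs no-compound and no-enzyme controls, concentration-response curve.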

| Structure (SMILES) | IC50 |
| --- | --- |
| CCCCCn1c(-c2ccc(C(=O)NCCc3ccccn3)cc2)cc(=O)n2cc(-c3ccc(Cl)cc3)nc12 [Compound 508] | 10 to 100 nM |
| CCCCCn1c(-c2ccc(C(=O)NCc3ccc(N4CCOCC4)cc3)cc2)cc(=O)n2cc(-c3ccc(Cl)cc3)nc12 [Compound 509] | 10 to 100 nM |
| CCCCCn1c(-c2ccc(C(=O)NC3CN4CCC3CC4)cc2)cc(=O)n2cc(-c3ccc(Cl)cc3)nc12 (stereo not drawn) [Compound 510] | < 10 nM |
| CCCCCn1c(-c2ccc(C(=O)NCCc3cncn3C)cc2)cc(=O)n2cc(-c3ccc(Cl)cc3)nc12 [Compound 511] | 10 to 100 nM |
| CCCCCn1c(-c2ccc(C(=O)NCCc3ccc(S(C)(=O)=O)cc3)cc2)cc(=O)n2cc(-c3ccc(Cl)cc3)nc12 [Compound 512] | < 10 nM |
| CCCCCn1c(-c2ccc(C(=O)NCCS(=O)(=O)N3CCCC3)cc2)cc(=O)n2cc(-c3ccc(Cl)cc3)nc12 [Compound 513] | 10 to 100 nM |
| CCCCCn1c(-c2ccc(C(=O)NCCn3ccnc3)cc2)cc(=O)n2cc(-c3ccc(Cl)cc3)nc12 [Compound 514] | < 10 nM |
| CCCCCn1c(-c2ccc(C(=O)NCCN3CCSCC3)cc2)cc(=O)n2cc(-c3ccc(Cl)cc3)nc12 [Compound 515] | 10 to 100 nM |
| CCCCCn1c(-c2ccc(C(=O)NCCN3CCNC3=O)cc2)cc(=O)n2cc(-c3ccc(Cl)cc3)nc12 [Compound 516] | 10 to 100 nM |
| CCCCCn1c(-c2ccc(C(=O)NCCC(=O)N3CCOCC3)cc2)cc(=O)n2cc(-c3ccc(Cl)cc3)nc12 [Compound 517] | 10 to 100 nM |
| CCCCCn1c(-c2ccc(C(=O)NCc3ccc([N+](=O)[O-])cc3)cc2)cc(=O)n2cc(-c3ccc(Cl)cc3)nc12 [Compound 518] | 100 to 1000 nM |
| CCCCCn1c(-c2ccc(C(=O)NCc3ccc(S(C)(=O)=O)cc3)cc2)cc(=O)n2cc(-c3ccc(Cl)cc3)nc12 [Compound 519] | 10 to 100 nM |
| CCCCCn1c(-c2ccc(C(=O)NCCCn3cc(-c4cccnc4)cn3)cc2)cc(=O)n2cc(-c3ccc(Cl)cc3)nc12 [Compound 520] | 10 to 100 nM |
| CCCCCn1c(-c2ccc(C(=O)NCc3ccc(S(N)(=O)=O)cc3)cc2)cc(=O)n2cc(-c3ccc(Cl)cc3)nc12 [Compound 521] | 10 to 100 nM |
| CCCCCn1c(-c2ccc(C(=O)NCCNC)cc2)cc(=O)n2cc(-c3ccc(Cl)cc3)nc12 [Compound 522] | 10 to 100 nM |
| CCCCCn1c(-c2ccc(C(=O)NCCc3c[nH]cn3)cc2)cc(=O)n2cc(-c3ccc(Cl)cc3)nc12 [Compound 523] | 10 to 100 nM |
| CCCCCn1c(-c2ccc(C(=O)NCCNC3CCS(=O)(=O)C3)cc2)cc(=O)n2cc(-c3ccc(Cl)cc3)nc12 (stereo not drawn) [Compound 524] | 10 to 100 nM |
| CCCCCn1c(-c2ccc(C(=O)NCc3ncc[nH]3)cc2)cc(=O)n2cc(-c3ccc(Cl)cc3)nc12 [Compound 525] | 10 to 100 nM |
| CCCCCn1c(-c2ccccn2)cc(=O)n2cc(-c3ccc(Cl)cc3)nc12 [Compound 528] | 100 to 1000 nM |
| CCCCCn1c(-c2ccc(C(=O)OC)cc2)cc(=O)n2cc(-c3ccc(Cl)cc3)nc12 [Compound 529] | 100 to 1000 nM |
| CCCCCn1c(-c2cnc(C#N)nc2)cc(=O)n2cc(-c3ccc(Cl)cc3)nc12 [Compound 530] | 10 to 100 nM |
| CCCCCn1c(-c2cnc(CNC(=O)[C@H](O)CO)nc2)cc(=O)n2cc(-c3ccc(Cl)cc3)nc12 [Compound 531] | < 10 nM |
| CCCCCn1c(-c2cnc(C(=O)OC)nc2)cc(=O)n2cc(-c3ccc(Cl)cc3)nc12 [Compound 532] | 10 to 100 nM |

| Structure (SMILES) | IC50 |
| --- | --- |
| CCCCCn1c(-c2cnc(C(=O)O)nc2)cc(=O)n2cc(-c3ccc(Cl)cc3)nc12 [Compound 533] | < 10 nM |
| CCCCCn1c(-c2cnc(C(=O)NCCC(=O)OC)nc2)cc(=O)n2cc(-c3ccc(Cl)cc3)nc12 [Compound 534] | < 10 nM |
| CCCCCn1c(-c2cnc(C(=O)NCCN3CC4(COC4)C3)nc2)cc(=O)n2cc(-c3ccc(Cl)cc3)nc12 [Compound 535] | < 10 nM |
| CCCCCn1c(-c2cnc(C(=O)NCCC(=O)O)nc2)cc(=O)n2cc(-c3ccc(Cl)cc3)nc12 [Compound 536] | < 10 nM |
| CCCCCn1c(OC2CNC2)cc(=O)n2cc(-c3ccc(Cl)cc3)nc12 [Compound 537] | 10 to 100 nM |
| CCCCCn1c(OC2CCNCC2)cc(=O)n2cc(-c3ccc(Cl)cc3)nc12 [Compound 538] | 100 to 1000 nM |
| CCCCCn1c(OC2CCN(C(=O)CN3CCOCC3)CC2)cc(=O)n2cc(-c3ccc(Cl)cc3)nc12 [Compound 539] | 10 to 100 nM |
| CCCCCn1c(OC2CCN(CC(=O)O)CC2)cc(=O)n2cc(-c3ccc(Cl)cc3)nc12 [Compound 540] | 10 to 100 nM |
| CCCCCn1c(C2=CCN(C(=O)OC(C)(C)C)CC2)cc(=O)n2cc(-c3ccc(Cl)cc3)nc12 [Compound 541] | 100 to 1000 nM |
| CCCCCn1c(OC2CCN(CCN3CCOCC3)CC2)cc(=O)n2cc(-c3ccc(Cl)cc3)nc12 [Compound 542] | 100 to 1000 nM |
| CCCCCn1c(OC2CN(C(=O)CN3CCOCC3)C2)cc(=O)n2cc(-c3ccc(Cl)cc3)nc12 [Compound 543] | 10 to 100 nM |
| CCCCCn1c(O[C@@H]2CO[C@H]3[C@@H]2OC[C@H]3O)cc(=O)n2cc(-c3ccc(Cl)cc3)nc12 [Compound 544] | 100 to 1000 nM |
| CCCCCn1c(C2=CCN(C(C)=O)CC2)cc(=O)n2cc(-c3ccc(Cl)cc3)nc12 [Compound 546] | 10 to 100 nM |
| CCCCCn1c(C2=CCN(S(C)(=O)=O)CC2)cc(=O)n2cc(-c3ccc(Cl)cc3)nc12 [Compound 547] | 10 to 100 nM |
| CCCCCn1c(OC2CCN(CC(=O)N3CCOCC3)CC2)cc(=O)n2cc(-c3ccc(Cl)cc3)nc12 [Compound 548] | 100 to 1000 nM |
| CCCCCn1c(O[C@H]2CCN(C(=O)OC(C)(C)C)C2)cc(=O)n2cc(-c3ccc(Cl)cc3)nc12 [Compound 549] | 10 to 100 nM |
| CCCCCn1c(O[C@@H]2CCN(C(=O)OC(C)(C)C)C2)cc(=O)n2cc(-c3ccc(Cl)cc3)nc12 [Compound 550] | 100 to 1000 nM |
| CCCCCn1c(O[C@H]2C[C@@H](NC(=O)OC(C)(C)C)C2)cc(=O)n2cc(-c3ccc(Cl)cc3)nc12 [Compound 551] | 100 to 1000 nM |
| CCCCCn1c(O[C@H]2C[C@H](NC(=O)OC(C)(C)C)C2)cc(=O)n2cc(-c3ccc(Cl)cc3)nc12 [Compound 552] | 100 to 1000 nM |
| CCCCCn1c(OCC2CCN(C(=O)OC(C)(C)C)C2)cc(=O)n2cc(-c3ccc(Cl)cc3)nc12 (stereo not drawn) [Compound 553] | 100 to 1000 nM |
| CCCCCn1c(OCC2CCCN2C(=O)OC(C)(C)C)cc(=O)n2cc(-c3ccc(Cl)cc3)nc12 (stereo not drawn) [Compound 554] | 100 to 1000 nM |
| CCCCCn1c(OC[C@H]2CCCN2C(=O)OC(C)(C)C)cc(=O)n2cc(-c3ccc(Cl)cc3)nc12 [Compound 555] | 10 to 100 nM |
| CCCCCn1c(O[C@H]2CC[C@H](C(C)(C)C(=O)O)CC2)cc(=O)n2cc(-c3ccc(Cl)cc3)nc12 [Compound 556] | 10 to 100 nM |

| Structure (SMILES) | IC50 |
| --- | --- |
| CCCCCn1c(C2=CCC(C(=O)O)CC2)cc(=O)n2cc(-c3ccc(Cl)cc3)nc12 (stereo not drawn) [Compound 557] | 10 to 100 nM |
| CCCCCn1c(OC)cc(=O)n2cc(-c3ccc(Cl)cc3)nc12 [Compound 558] | 100 to 1000 nM |
| CCCCCn1c(N(CCC)C(C)=O)cc(=O)n2cc(-c3ccc(Cl)cc3)nc12 [Compound 560] | 10 to 100 nM |
| CCCCCn1c(/N=C(\C)OCCC)cc(=O)n2cc(-c3ccc(Cl)cc3)nc12 [Compound 561] | > 1000 nM |
| CCCCCn1c(N(CCOCCOC)C(C)=O)cc(=O)n2cc(-c3ccc(Cl)cc3)nc12 [Compound 562] | 100 to 1000 nM |
| CCCCCn1c(/N=C(\C)OCCCOCOC)cc(=O)n2cc(-c3ccc(Cl)cc3)nc12 [Compound 563] | 100 to 1000 nM |
| CCCCCn1c(N(CCCC(=O)OCC)C(C)=O)cc(=O)n2cc(-c3ccc(Cl)cc3)nc12 [Compound 564] | 10 to 100 nM |
| CCCCCn1c(N(Cc2ccc(C(=O)OC)cc2)C(C)=O)cc(=O)n2cc(-c3ccc(Cl)cc3)nc12 [Compound 566] | 10 to 100 nM |
| CCCCCn1c(/N=C(\C)OCc2ccc(C(=O)OC)cc2)cc(=O)n2cc(-c3ccc(Cl)cc3)nc12 [Compound 567] | > 1000 nM |
| CCCCCn1c(N(Cc2ccc(C(=O)O)cc2)C(C)=O)cc(=O)n2cc(-c3ccc(Cl)cc3)nc12 [Compound 569] | < 10 nM |
| CCCCCn1c(OC2CN(CCC(=O)O)C2)cc(=O)n2cc(-c3ccc(Cl)cc3)nc12 [Compound 570] | < 10 nM |
| CCCCCn1c(N2CCC[C@H]2C(=O)NCC(C)C(=O)OC)cc(=O)n2cc(-c3ccc(Cl)cc3)nc12 (stereo partly drawn) [Compound 571] | 100 to 1000 nM |
| CCCCCn1c(O[C@H]2CCNC2)cc(=O)n2cc(-c3ccc(Cl)cc3)nc12 [Compound 572] | 10 to 100 nM |
| CCCCCn1c(O[C@H]2CCN(CC(=O)OC(C)(C)C)C2)cc(=O)n2cc(-c3ccc(Cl)cc3)nc12 [Compound 573] | 10 to 100 nM |
| CCCCCn1c(OC2CN(CC(=O)OC(C)(C)C)C2)cc(=O)n2cc(-c3ccc(Cl)cc3)nc12 [Compound 574] | 10 to 100 nM |
| CCCCCn1c(O[C@H]2CCN(CC(=O)O)C2)cc(=O)n2cc(-c3ccc(Cl)cc3)nc12 [Compound 575] | 10 to 100 nM |
| CCCCCn1c(O[C@H]2CCN(CCC(=O)O)C2)cc(=O)n2cc(-c3ccc(Cl)cc3)nc12 [Compound 576] | 10 to 100 nM |
| CCCCCn1c(OC2CN(CC(=O)O)C2)cc(=O)n2cc(-c3ccc(Cl)cc3)nc12 [Compound 577] | < 10 nM |
| CCCCCn1c(O[C@H]2CCN(CCC(=O)OC(C)(C)C)C2)cc(=O)n2cc(-c3ccc(Cl)cc3)nc12 [Compound 578] | 10 to 100 nM |
| CCCCCn1c(N2C[C@H](F)C[C@H]2C(=O)NCCC(=O)O)cc(=O)n2cc(-c3ccc(Cl)cc3)nc12 [Compound 579] | 10 to 100 nM |
| CCCCCn1c(N2C[C@@H](F)C[C@H]2C(=O)NCCC(=O)O)cc(=O)n2cc(-c3ccc(Cl)cc3)nc12 [Compound 580] | < 10 nM |
| CCCCCn1c(N2C[C@H](O)C[C@H]2C(=O)NCCC(=O)O)cc(=O)n2cc(-c3ccc(Cl)cc3)nc12 [Compound 581] | < 10 nM |
| CCCCCn1c(N2C[C@@H](O)C[C@H]2C(=O)NCCC(=O)O)cc(=O)n2cc(-c3ccc(Cl)cc3)nc12 [Compound 582] | < 10 nM |
